Patent publication US12133841B2, “Heterocyclic compounds as kinase inhibitors, compositions comprising the heterocyclic compound, and methods of use thereof” (JS INNOMED HOLDINGS LTD., priority 2018, dated 2024)

How the values were obtained:
human ERK2 = target: T1, human ERK2 (Homo sapiens, UniProt P28482); assay: LanthaScreen TR-FRET ERK2 enzymatic assay; conditions: 5 μM ATP, one hour reaction; read-out: ERK2 Biochemical Activity (IC50 of ERK2 inhibition)
T1 construct: recombinantly expressed as GST-tagged full-length protein purified from E. coli; GST; purchased Invitrogen PV3311; host or cells: E. coli
Experimental: Compounds were tested in a LanthaScreen™ time-resolved fluorescence energy transfer (TR-FRET) enzymatic assay from Invitrogen. The assay used human ERK2 (Mitogen Activated Kinase 1, Invitrogen, Cat. PV3311) recombinantly expressed as GST-tagged full-length protein purified from E. coli and activated in vitro with MAP2K1. The substrate was a recombinant truncated version (residues 19-96) of ATF2 fused with Green Fluorescent Protein (Invitrogen, Cat. PV4445). Test compounds were prepared and diluted in DMSO in 3-fold serial dilutions to 100× of the final testing concentrations. The compounds were then further diluted to 4× by the kinase reaction buffer (Invitrogen, Cat. PV3189). The enzymatic reaction for compound testing was performed in a white 384-well polypropylene plate (Packard, Cat. 6005214) with a total reaction volume of 10 μl containing 20 ng/ml ERK2, 400 nM substrate, and 5 μM ATP that is around its Km. The assay started with loading 2.5 μl of ERK2 diluted in kinase reaction buffer to wells, followed by addition of equal volume of 4× compounds for 15-min incubation at the room temperature for pre-treatment. The enzymatic reaction was initiated by addition of 5 μl of mixture of the substrate and ATP prepared in kinase reaction buffer. After one hour reaction, 10 μl mixture of EDTA (final 10 mM) and terbium-labeled anti-pATF2 (pThr71) antibody (final 2 nM) (Invitrogen, Cat. PV4451) prepared in TR-FRET antibody dilution buffer (Invitrogen, Cat. PV3574) was added to stop the enzymatic reaction and produce TR-FRET signals. After 30 minutes of incubation at room temperature, the plate was read in Tecan Infinite F200 Pro with the following settings: Excitation 340 nm (30)/Emission1 495 nm (10)/Emission2 520 nm (25). The TR-FRET values were dimensionless numbers that were calculated as the ratio of the acceptor ([…]) signal to the donor (Terbium) signal. Percent of control was calculated as the percentage of compound-treated vs 1% DMSO vehicle-treated. The dose-response curves were generated and the IC50s were calculated by nonlinear sigmoid curve fitting using GraphPad Prism.
The IC50 values of ERK2 inhibition for compounds disclosed are listed in Table 3, A: ≤10 nM; B: >10 nM and ≤100 nM; C: >100 nM and ≤1 uM; D: >1 μM.

Colo205 cell line = assay: Colo205 cell proliferation assay (MTT assay, WST-8); type: cell-based; conditions: Homo sapiens, COLO 205; 72 hours incubation; read-out: Colo 205 Cell Activity (IC50 of growth inhibition in Colo 205 cells)
Experimental: Compounds disclosed herein were tested for the inhibition of ERK2 by a Colo205 cell proliferation assay commonly known as MTT assay. In this assay, a complete media was prepared by adding 10% fetal bovine serum to RPMI-1640 medium (Life technology). Colon cancer cells (Colo205 cell line) were added to each of 88 wells of a 96 well plate at a seeding density of 5,000 cells/well/90 μL. The cells were allowed to attach to the plate by incubating at 37° C. for 24 hours. The compound was dissolved in DMSO (SIGMA). A solution of test compound was prepared in complete media by serial dilution to obtain the following concentrations: 500 μM, 150 μM, 50 μM, 15 μM, 5 μM, 1.5 μM, 0.5 μM, 0.15 μM and 0.05 μM. The test compound solution (10 μL) was added to each of 80 cell-containing wells. The final concentrations of the compound were following: 50 μM, 15 μM, 5 μM, 1.5 μM, 0.5 μM, 0.15 μM, 0.05 μM, 0.015 μM and 0.005 μM. The final concentration of DMSO is 0.5%. To the 8 remaining cell-containing wells, only complete media (containing 0.5% DMSO) was added to form a control group in order to measure maximal proliferation. To the remaining 8 empty wells, complete media was added to for a vehicle control group in order to measure background. The plates were incubated at 37° C. for 72 hours. 10 μL WST-8 solution (DOJINDO, Cell Counting KIT-8) was added to each well. The plates were further incubated at 37° C. for 2 hours, and then read for the absorbance using a microplate reader at 450 nm.
The IC50 values of growth inhibition in Colo 205 cells for compounds disclosed are listed in Table 3, A′: ≤0.5 μM; B′: >0.5 μM and ≤1 μM; C′: >1.0 μM and ≤5 uM; D′: >5 μM.

T1 sequence (P28482 whole entry): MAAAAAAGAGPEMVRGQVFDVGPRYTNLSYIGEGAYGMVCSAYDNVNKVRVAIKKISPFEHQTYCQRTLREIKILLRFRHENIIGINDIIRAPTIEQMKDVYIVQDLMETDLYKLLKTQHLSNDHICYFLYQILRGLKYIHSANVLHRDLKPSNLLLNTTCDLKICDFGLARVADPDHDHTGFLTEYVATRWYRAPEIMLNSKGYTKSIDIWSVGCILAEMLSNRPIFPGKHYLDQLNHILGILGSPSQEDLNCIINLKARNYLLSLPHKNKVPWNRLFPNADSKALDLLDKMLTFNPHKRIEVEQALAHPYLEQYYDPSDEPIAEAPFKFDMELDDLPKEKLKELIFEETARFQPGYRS

IC50 (human ERK2) [nM]	IC50 (Colo205 cell line) [nM]	Compound
≤ 10	≤ 500	Cn1nccc1Nc1nccc(-c2cc3c(s2)C(C)(C)N(Cc2nc(C(F)(F)F)cs2)C3=O)n1 [Example 5, 6,6-dimethyl-2-(2-((1-methyl-1H-pyrazol-5-yl)amino)pyrimidin-4-yl)-5-((4-(trifluoromethyl)thiazol-2-yl)methyl)-5,6-dihydro-4H-thieno[2,3-c]pyrrol-4-one]
≤ 10	500 to 1000	Cn1nccc1Nc1nccc(-c2cc3c(s2)C(C)(C)N(Cc2ccc(C(F)(F)F)nc2)C3=O)n1 [Example 4, 6,6-dimethyl-2-(2-((1-methyl-1H-pyrazol-5-yl)amino)pyrimidin-4-yl)-5-((6-(trifluoromethyl)pyridin-3-yl)methyl)-5,6-dihydro-4H-thieno[2,3-c]pyrrol-4-one]
≤ 10	≤ 500	CC(c1nc(C(F)(F)F)cs1)N1C(=O)c2cc(-c3ccnc(Nc4ccnn4C)n3)sc2C1(C)C (racemic) [Example 10, 6,6-dimethyl-2-(2-(1-methyl-1H-pyrazol-5-ylamino)pyrimidin-4-yl)-5-(1-(4-(trifluoromethyl)thiazol-2-yl)ethyl)-5,6-dihydro-4H-thieno[2,3-c]pyrrol-4-one]
≤ 10	≤ 500	Cn1nccc1Nc1nccc(-c2cc3c(s2)C(C)(C)N(Cc2cccc(C(F)(F)F)n2)C3=O)n1 [Example 3, 6,6-dimethyl-2-(2-((1-methyl-1H-pyrazol-5-yl)amino)pyrimidin-4-yl)-5-((6-(trifluoromethyl)pyridin-2-yl)methyl)-5,6-dihydro-4H-thieno[2,3-c]pyrrol-4-one]
≤ 10	≤ 500	Cn1nccc1Nc1nccc(-c2cc3c(s2)C(C)(C)N(Cc2ccnc(C(F)(F)F)c2)C3=O)n1 [Example 1, 6,6-dimethyl-2-(2-(1-methyl-1H-pyrazol-5-ylamino)pyrimidin-4-yl)-5-((2-(trifluoromethyl)pyridin-4-yl)methyl)-5,6-dihydro-4H-thieno[2,3-c]pyrrol-4-one]
≤ 10	≤ 500	Cn1nccc1Nc1nccc(-c2cc3c(s2)C(C)(C)N(Cc2cc(C(F)(F)F)no2)C3=O)n1 [Example 7, 6,6-dimethyl-2-(2-((1-methyl-1H-pyrazol-5-yl)amino)pyrimidin-4-yl)-5-((3-(trifluoromethyl)isoxazol-5-yl)methyl)-5,6-dihydro-4H-thieno[2,3-c]pyrrol-4-one]
≤ 10	≤ 500	Cn1nccc1Nc1nccc(-c2cc3c(s2)C(C)(C)N(Cc2ccnc(C(F)(F)F)n2)C3=O)n1 [Example 6, 6,6-dimethyl-2-(2-((1-methyl-1H-pyrazol-5-yl)amino)pyrimidin-4-yl)-5-((2-(trifluoromethyl)pyrimidin-4-yl)methyl)-5,6-dihydro-4H-thieno[2,3-c]pyrrol-4-one]

Second part, the compound before the results:

Compound	IC50 (human ERK2) [nM]	IC50 (Colo205 cell line) [nM]
Cn1nccc1Nc1nccc(-c2cc3c(s2)C(C)(C)N(CCN[C@H](CO)c2cccc(Cl)c2)C3=O)n1 [Example 17, (S)-5-(2-((1-(3-chlorophenyl)-2-hydroxyethyl)amino)ethyl)-6,6-dimethyl-2-(2-((1-methyl-1H-pyrazol-5-yl)amino)pyrimidin-4-yl)-5,6-dihydro-4H-thieno[2,3-c]pyrrol-4-one]	–	500 to 1000
CC(c1cccc(C(F)(F)F)n1)N1C(=O)c2cc(-c3ccnc(Nc4ccnn4C)n3)sc2C1(C)C (stereo not shown) [Example 12, 6,6-dimethyl-2-(2-((1-methyl-1H-pyrazol-5-yl)amino)pyrimidin-4-yl)-5-(1-(6-(trifluoromethyl)pyridin-2-yl)ethyl)-5,6-dihydro-4H-thieno[2,3-c]pyrrol-4-one]	–	1000 to 5000
Cn1nccc1Nc1nccc(-c2cc3c(s2)C(C)(C)N([C@H](CO)c2cccc(Cl)c2)C3=O)n1 [Example 11, (S)-5-(1-(3-chlorophenyl)-2-hydroxyethyl)-6,6-dimethyl-2-(2-((1-methyl-1H-pyrazol-5-yl)amino)pyrimidin-4-yl)-5,6-dihydro-4H-thieno[2,3-c]pyrrol-4-one]	–	≤ 500
Cn1nccc1Nc1nccc(-c2cc3c(s2)C(C)(C)N(Cc2cccc(Cl)c2)C3=O)n1 [Example 2, 5-(3-chlorobenzyl)-6,6-dimethyl-2-(2-(1-methyl-1H-pyrazol-5-ylamino)pyrimidin-4-yl)-5,6-dihydro-4H-thieno[2,3-c]pyrrol-4-one]	≤ 10	≤ 500
CC(c1ccnc(C(F)(F)F)c1)N1C(=O)c2cc(-c3ccnc(Nc4ccnn4C)n3)sc2C1(C)C (racemic) [Example 9, 6,6-dimethyl-2-(2-(1-methyl-1H-pyrazol-5-ylamino)pyrimidin-4-yl)-5-(1-(2-(trifluoromethyl)pyridin-4-yl)ethyl)-5,6-dihydro-4H-thieno[2,3-c]pyrrol-4-one]	≤ 10	≤ 500
Cn1nccc1Nc1nccc(-c2cc3c(s2)C(C)(C)N(CCc2ccnc(C(F)(F)F)c2)C3=O)n1 [Example 8, 6,6-dimethyl-2-(2-((1-methyl-1H-pyrazol-5-yl)amino)pyrimidin-4-yl)-5-(2-(2-(trifluoromethyl)pyridin-4-yl)ethyl)-5,6-dihydro-4H-thieno[2,3-c]pyrrol-4-one]	–	1000 to 5000
Cn1nccc1Nc1nccc(-c2cc3c(s2)C(C)(C)N(CC(=O)N[C@H](CO)c2cccc(Cl)c2)C3=O)n1 [Example 14, (S)—N-(1-(3-chlorophenyl)-2-hydroxyethyl)-2-(6,6-dimethyl-2-(2-((1-methyl-1H-pyrazol-5-yl)amino)pyrimidin-4-yl)-4-oxo-4H-thieno[2,3-c]pyrrol-5(6H)-yl)acetamide]	≤ 10	≤ 500
CC(c1ccnc(C(F)(F)F)n1)N1C(=O)c2cc(-c3ccnc(Nc4ccnn4C)n3)sc2C1(C)C (stereo not shown) [Example 13, 6,6-dimethyl-2-(2-((1-methyl-1H-pyrazol-5-yl)amino)pyrimidin-4-yl)-5-(1-(2-(trifluoromethyl)pyrimidin-4-yl)ethyl)-5,6-dihydro-4H-thieno[2,3-c]pyrrol-4-one]	10 to 100	≤ 500
CC(C(=O)N[C@H](CO)c1cccc(Cl)c1)N1C(=O)c2cc(-c3ccnc(Nc4ccnn4C)n3)sc2C1(C)C (stereo partly drawn) [Example 15, N—((S)-1-(3-chlorophenyl)-2-hydroxyethyl)-2-(6,6-dimethyl-2-(2-((1-methyl-1H-pyrazol-5-yl)amino)pyrimidin-4-yl)-4-oxo-4H-thieno[2,3-c]pyrrol-5(6H)-yl)propanamide]	–	500 to 1000
Cn1nccc1Nc1nccc(-c2cc3c(s2)C(C)(C)N(CC(=O)NCc2ccnc(C(F)(F)F)c2)C3=O)n1 [Example 16, 2-(6,6-dimethyl-2-(2-((1-methyl-1H-pyrazol-5-yl)amino)pyrimidin-4-yl)-4-oxo-4H-thieno[2,3-c]pyrrol-5(6H)-yl)-N-((2-(trifluoromethyl)pyridin-4-yl)methyl)acetamide]	–	1000 to 5000
